Values quoted from earlier work, collected in patent US20110229584A1, “Compound for the control of herpes simplex virus using glycyrrhizic acid, lipoic acid, allantoin, and slippery elm” (priority 2010, published 2011).

How the values were obtained:
HSV-1 [1] = test system: HSV-1
[2] = test system: severe acute respiratory syndrome (SARS)
Epstein-Barr = conditions: incubated with the viruses for more than 30 minutes
HSV-2 = conditions: incubated with the viruses for more than 30 minutes
zoster = conditions: incubated with the viruses for more than 30 minutes
[3] = test system: human aortic endothelial cells
HSV-1 [4] = conditions: applied topically to infected epidermal areas
HSV-1 [5] = test system: HSV-1; remark: listed apart in the source

## CCCCCCCCCCCCCCCCCCCCCCO [Docosanol, docosanol]
HSV; both treatment phases, applied early in the stages of infection
  decrease of mean time of healing: more than 50%
HSV; first episodes
  healing time of first episodes with treatment (average): 5.4 days
HSV; first episodes, from 7.3 days
  reduction of healing times of first episodes (average): 1.9 days

## CC1(C)[C@@H](O[C@H]2O[C@H](C(=O)O)[C@@H](O)[C@H](O)[C@H]2O[C@@H]2O[C@H](C(=O)O)[C@@H](O)[C@H](O)[C@H]2O)CC[C@]2(C)[C@H]3C(=O)C=C4[C@@H]5C[C@@](C)(C(=O)O)CC[C@]5(C)CC[C@@]4(C)[C@]3(C)CC[C@@H]12 [Glycyrrhizic acid]
HSV-1 [1]; in vivo
  activity against in vivo HSV-1: strong activity
HSV-1 [1]; thermally injured mice
  resistance of thermally injured mice to HSV-1: improve
[2]
  inhibition of severe acute respiratory syndrome (SARS): inhibit
Vesicular viomantitis
  growth and cytopathic effect of vesicular viomantitis: inhibit
Epstein-Barr
  inactivation of Epstein-Barr: more than 90%
vaccinia
  growth and cytopathic effect of vaccinia: inhibit
Herpes simplex (HSV)
  deactivation of HSV: irreversibly deactiveate
  growth and cytopathic effect of Herpes simplex (HSV): inhibit
Newcastle's Disease
  growth and cytopathic effect of Newcastle's Disease: inhibit
HSV-2
  inactivation of HSV-2: more than 90%
zoster
  inactivation of zoster: more than 90%

## O=C(O)CCCCC1CCSS1 (stereo not drawn) [Lipoic acid, alpha-Lipoic acid]
[3]
  LPS-caused expression of cellular adhesion molecules and adherence of monocytes to human aortic endothelial cells: inhibit
  LPS-triggered NF-B DNA binding activities: inhibited

## Cl.NCCCC[C@H](N)C(=O)O [Lysine monohydrochloride, L-Lysine Monohydrochloride]
HSV-1 [4]
  inactivation of HSV-1: not to be able to inactivate

## Nc1nc2c(ncn2CCC(CO)CO)c(=O)[nH]1 [Penciclovir]
HSV-1 [5]; from 4.1 days
  decrease of pain duration: 0.6 days
HSV-1 [5]; treated group
  healing time of the lesions with treatment: 4.8 days
  pain duration with treatment: 3.5 days
HSV-1 [5]; versus placebo
  lesion virus shedding: marginally changed
HSV-1 [5]; versus placebo 5.5 days
  healing of the lesions faster versus placebo: 0.7 days

## CC1(C)[C@@H](O)CC[C@]2(C)[C@H]3C(=O)C=C4[C@@H]5C[C@@](C)(C(=O)O)CC[C@]5(C)CC[C@@]4(C)[C@]3(C)CC[C@@H]12 [glycrrhetic acid]
[2]
  inhibition of severe acute respiratory syndrome (SARS): inhibit
